Experimental findings from patent US20190110476A1, “NOVEL ISOTHIAZOLAMIDES, PROCESSES FOR THEIR PREPARATION AND THEIR USE AS FUNGICIDES” (priority 2014, published 2019) are described below.

Marks after values point to notes of the source that are not given here.

The data set is described as follows: Measurement of LogP values by HPLC on reversed phase columns (EEC directive 79/831 Annex V.A8). The format is physicochemical. A digest of the protocol:
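Following EEC directive 79/831 Annex V.A8, lipophilicity was derived from retention on reversed-phase HPLC columns. Separate values are given per diastereoisomer, and UV lambda-max (200–400 nm) was read at the peak signals.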
`CC(C)N(C(=O)c1snc(NC(=O)C(C)(C)C)c1Cl)C(C)C` [I-974]: the LogP is 2.80[a].
In the case of `CC(=O)N(C(C)=O)c1nsc(C(=O)N(C(C)C)C(C)C)c1Cl` [I-975], the LogP is 2.77[a].
Turning to `Cc1cc(C)c(CN(C(=O)c2cc(N)ns2)C2CC2)c(C)c1` [I-977], the LogP is 2.86[a].
As to `Nc1cc(C(=O)N(Cc2ccccc2)C2CC2)sn1` [I-978], the LogP was 2.02[a].
Regarding `CC(c1cc(Cl)cc(Cl)c1)N(C(=O)c1cc(N)ns1)C1CC1` (stereo not drawn) [I-979], the LogP was 3.19[a].
Turning to `Nc1nsc(C(=O)N(C2CCCCC2)C2CC2)c1Cl` [I-980], the LogP is 2.78[a].
In the case of `COc1ccc(CNc2nsc(C(=O)NC(=O)C3CCCCC3)c2Cl)cc1` [I-982], the LogP was 3.83[a].
For `O=C(NCCc1ccccc1)c1snc(N(Cc2ccccc2)Cc2ccccc2)c1-c1ccc(F)cc1` [I-983], the LogP is 5.68[a].
In the case of `CCC(C)CNC(=O)c1cc(N)ns1` (stereo not drawn) [I-984], the LogP is 1.44[a].
Regarding `CC(C)CNC(=O)c1cc(N)ns1` [I-985], the LogP was 1.07[a].
Take `COc1ccc(CNc2nsc(C(=O)N(Cc3cc(C)ccc3F)C3CC3)c2Cl)cc1` [I-986]: the LogP is 4.46[a].
For the compound `COc1ccc(CNc2nsc(C(=O)N(Cc3cc(F)ccc3F)C3CC3)c2Cl)cc1` [I-987], the LogP is 4.15[a].
With `COc1ccc(CNc2nsc(C(=O)N(Cc3cc(Cl)ccc3F)C3CC3)c2Cl)cc1` [I-988], the LogP was 4.49[a].
The same measure for `COc1ccc(CNc2nsc(C(=O)N(Cc3cc(Cl)ccc3Br)C3CC3)c2Cl)cc1` [I-989]: 4.98[a]; for `Cc1ccc(F)c(CN(C(=O)c2cc(N(Cc3ccccc3)Cc3ccccc3)ns2)C2CC2)c1` [I-990]: 5.56[a].
The same measure for `O=C(c1cc(N(Cc2ccccc2)Cc2ccccc2)ns1)N(Cc1cc(F)ccc1F)C1CC1` [I-991]: 5.25[a]; for `O=C(c1cc(N(Cc2ccccc2)Cc2ccccc2)ns1)N(Cc1cc(Cl)ccc1F)C1CC1` [I-992]: 5.59[a].
The figure for `O=C(c1cc(N(Cc2ccccc2)Cc2ccccc2)ns1)N(Cc1cc(Cl)ccc1Br)C1CC1` [I-993] is 6.11[a].
On to `Nc1nsc(C(=O)NCCc2ccccc2)c1-c1ccc(F)cc1` [I-994], for which the LogP is 2.59[a].
The figure for `Cc1ccc(F)c(CN(C(=O)c2cc(N)ns2)C2CC2)c1` [I-995] is 2.44[a]; for `Cc1ccc(F)c(CN(C(=O)c2cc(NCc3ccccc3)ns2)C2CC2)c1` [I-996] it is 4.01[a]; for `Nc1cc(C(=O)N(Cc2cc(F)ccc2F)C2CC2)sn1` [I-997] it is 2.18[a].
Turning to `O=C(c1cc(NCc2ccccc2)ns1)N(Cc1cc(F)ccc1F)C1CC1` [I-998], the LogP was 3.74[a].
For the compound `Nc1cc(C(=O)N(Cc2cc(Cl)ccc2F)C2CC2)sn1` [I-999], the LogP is 2.49[a].
On to `O=C(c1cc(NCc2ccccc2)ns1)N(Cc1cc(Cl)ccc1F)C1CC1` [I-1000], for which the LogP is 4.06[a].
For `Nc1cc(C(=O)N(Cc2cc(Cl)ccc2Br)C2CC2)sn1` [I-1001], the LogP is 2.84[a].
`O=C(c1cc(NCc2ccccc2)ns1)N(Cc1cc(Cl)ccc1Br)C1CC1` [I-1002]: the LogP is 4.51[a].
For the compound `COc1ccc(CNc2nsc(C(=O)N(Cc3ccc(F)cc3F)C3CC3)c2Cl)c(OC)c1` [I-1012], the LogP was 4.46[a].
For the compound `CCC(C)CNC(=O)c1snc(N)c1Cl` (stereo not drawn) [I-1014], the LogP was 1.98[a].
In the case of `Nc1nsc(C(=S)NCc2c(F)cc(F)cc2F)c1Cl` [I-1015], the LogP was 2.86[a].
For the compound `Nc1nsc(C(=S)NCc2ccc(F)cc2F)c1Cl` [I-1016], the LogP is 2.74[a].
As for `CC(C)CNC(=O)c1snc(N)c1Cl` [I-1018], the LogP is 1.55[a].
In the case of `Nc1nsc(C(=S)NCc2ccccc2F)c1Cl` [I-1021], the LogP is 2.73[a].
The figure for `CCC(C)CNC(=S)c1snc(N)c1Cl` (stereo not drawn) [I-1022] is 2.87[a]; for `Nc1nsc(C(=S)NCc2ccc(Cl)cc2)c1Cl` [I-1026] it is 3.12[a]; for `COc1ccc(CNc2nsc(C(=O)NOc3ccccc3)c2Cl)cc1` [I-1031] it is 3.17[a].
Turning to `Nc1nsc(C(=O)NOc2ccccc2)c1Cl` [I-1033], the LogP is 1.53[a].
As to `COc1ccc(CNc2nsc(C(=O)NC(Cc3ccccc3)C3CCCCC3)c2Cl)cc1` (stereo not drawn) [I-1079], the LogP is 5.10[b].
Consider `Nc1nsc(C(=O)NC(Cc2ccccc2)C2CCCCC2)c1Cl` (stereo not drawn) [I-1095], for which the LogP was 3.55[b].
For `CCC(NC(=O)c1snc(NCc2ccc(OC)cc2)c1Cl)C1CCCCC1` (stereo not drawn) [I-1170], the LogP was 4.83[b].
For the compound `COc1ccc(CNc2nsc(C(=O)NC(C)c3ccncc3)c2Cl)cc1` (stereo not drawn) [I-1189], the LogP is 1.54[a].
Regarding `COc1ccc(CNc2nsc(C(=O)NC3CCOCC3)c2Cl)cc1` [I-1190], the LogP is 2.50[a].
The figure for `CCC1CC(C)CC(CC)C1NC(=O)c1snc(NCc2ccc(OC)cc2)c1Cl` (stereo not drawn) [I-1191] is 6.02[a]; for `COc1ccc(CNc2nsc(C(=O)NC(c3ccccc3C)C(C)C)c2Cl)cc1` (stereo not drawn) [I-1192] it is 4.69[a].
Regarding `CCc1ccc(CNC(=O)c2snc(NCc3ccc(OC)cc3)c2Cl)nc1` [I-1193], the LogP is 2.34[a].
Take `COc1ccc(CNc2nsc(C(=O)NCCCn3cccn3)c2Cl)cc1` [I-1194]: the LogP was 2.53[a].
`COc1ccc(CNc2nsc(C(=O)NC3CCC3)c2Cl)cc1` [I-1195]: the LogP was 3.15[a].
Turning to `COc1ccc(CNc2nsc(C(=O)NCCC3CCOC3)c2Cl)cc1` (stereo not drawn) [I-1196], the LogP is 2.59[a].
The figure for `COc1ccc(CNc2nsc(C(=O)NC(C)c3ccccn3)c2Cl)cc1` (stereo not drawn) [I-1197] is 2.57[a].
`CCn1cc(CNC(=O)c2snc(NCc3ccc(OC)cc3)c2Cl)c(C(F)F)n1` [I-1198]: the LogP was 3.09[a].
With `COc1ccc(CNc2nsc(C(=O)NCc3ccc(C(C)(C)C)cc3)c2Cl)cc1` [I-1199], the LogP was 4.69[a].
For the compound `COc1ccc(CNc2nsc(C(=O)NCC3COCC3C)c2Cl)cc1` (stereo not drawn) [I-1200], the LogP was 2.68[a].
With `COc1ccc(CNc2nsc(C(=O)NCc3cscc3C)c2Cl)cc1` [I-1201], the LogP is 3.61[a].
Consider `CCC(NC(=O)c1snc(NCc2ccc(OC)cc2)c1Cl)c1cn(CC)nc1C` (stereo not drawn) [I-1202], for which the LogP is 3.02[a].
The same measure for `COc1ccc(CNc2nsc(C(=O)NCc3nc(C)cs3)c2Cl)cc1` [I-1203]: 2.80[a]; for `COc1ccc(CNc2nsc(C(=O)NCc3ccnc(OC)c3)c2Cl)cc1` [I-1204]: 2.78[a].
Turning to `CCn1cc(CNC(=O)c2snc(NCc3ccc(OC)cc3)c2Cl)cn1` [I-1205], the LogP was 2.48[a].
The same measure for `COc1ccc(CNc2nsc(C(=O)NC3CC(C)CC(C)(C)C3)c2Cl)cc1` (stereo not drawn) [I-1206]: 5.00[a]; for `COc1ccc(CNc2nsc(C(=O)NC(C)c3ccc(C(C)C)cc3)c2Cl)cc1` (stereo not drawn) [I-1207]: 4.69[a].
For the compound `COc1ccc(CNc2nsc(C(=O)NCC3OCCc4ccccc43)c2Cl)cc1` (stereo not drawn) [I-1208], the LogP was 3.72[a].
In the case of `C#CC1(NC(=O)c2snc(NCc3ccc(OC)cc3)c2Cl)CCCCC1` [I-1209], the LogP was 3.99[a].
On to `COc1ccc(CNc2nsc(C(=O)NC3CCCC(C)C3C)c2Cl)cc1` (stereo not drawn) [I-1210], for which the LogP is 4.46[a].
`COc1ccc(CNc2nsc(C(=O)NCc3cccn3C)c2Cl)cc1` [I-1211]: the LogP was 3.15[a].
Regarding `COc1ccc(CNc2nsc(C(=O)NC(C)c3ccccc3F)c2Cl)cc1` (stereo not drawn) [I-1212], the LogP is 3.79[a].
As to `COc1ccc(CNc2nsc(C(=O)NCc3cncn3C)c2Cl)cc1` [I-1213], the LogP is 1.35[a].
For `CCn1nc(C)c(CNC(=O)c2snc(NCc3ccc(OC)cc3)c2Cl)c1C` [I-1214], the LogP was 2.57[a].
The same measure for `CCC1CCCCC1NC(=O)c1snc(NCc2ccc(OC)cc2)c1Cl` (stereo not drawn) [I-1215]: 4.49[a].
Turning to `COc1ccc(CNc2nsc(C(=O)NC3CCC4CCCCC4C3)c2Cl)cc1` (stereo not drawn) [I-1216], the LogP is 5.24[a].
With `COc1ccc(CNc2nsc(C(=O)NCc3csc(C)n3)c2Cl)cc1` [I-1217], the LogP is 2.69[a].
For `COc1ccc(CNc2nsc(C(=O)NC3CC(C(F)(F)F)CC(C(F)(F)F)C3)c2Cl)cc1` (stereo not drawn) [I-1218], the LogP is 4.30[a].
The same measure for `COc1ccc(CNc2nsc(C(=O)NC3C(C(C)C)CCCC3C(C)C)c2Cl)cc1` (stereo not drawn) [I-1219]: 6.32[a]; for `COc1ccc(CNc2nsc(C(=O)NC3(C#N)CCCC3C)c2Cl)cc1` (stereo not drawn) [I-1220]: 3.41[a]; for `COc1ccc(CNc2nsc(C(=O)NCc3ccc(OC(F)F)cc3)c2Cl)cc1` [I-1229]: 3.63[a].
Consider `COc1ccc(CNc2nsc(C(=O)NCc3cc(OC)ccc3OC)c2Cl)cc1` [I-1230], for which the LogP was 3.59[a].
As to `COc1ccc(CNc2nsc(C(=O)NCc3cnccn3)c2Cl)cc1` [I-1231], the LogP was 2.26[a].
For `COc1ccc(CNc2nsc(C(=O)NC(C)(C)c3cccc(C(F)(F)F)c3)c2Cl)cc1` [I-1232], the LogP was 4.44[a].
Take `COc1ccc(CNc2nsc(C(=O)NCc3cccc(OC(F)(F)F)c3)c2Cl)cc1` [I-1233]: the LogP is 4.13[a].
The figure for `COc1ccc(CNc2nsc(C(=O)NC(C)c3cccc(OC)c3)c2Cl)cc1` (stereo not drawn) [I-1234] is 3.68[a].
Take `COc1ccc(CNc2nsc(C(=O)NCc3cccnc3OC)c2Cl)cc1` [I-1235]: the LogP was 3.13[a].
Turning to `COc1ccc(CNc2nsc(C(=O)NCC3(C)CCCO3)c2Cl)cc1` (stereo not drawn) [I-1236], the LogP was 3.06[a].
The figure for `CCn1ncc(CNC(=O)c2snc(NCc3ccc(OC)cc3)c2Cl)c1C` [I-1237] is 2.59[a]; for `COc1ccc(CNc2nsc(C(=O)NCc3ccn(C)n3)c2Cl)cc1` [I-1238] it is 2.39[a]; for `COc1ccc(CNc2nsc(C(=O)NC(C)Cc3ccco3)c2Cl)cc1` (stereo not drawn) [I-1239] it is 3.55[a].
`COc1ccc(CNc2nsc(C(=O)NCc3ccc(OC)c(Cl)c3)c2Cl)cc1` [I-1240]: the LogP was 3.68[a].
